Laboratory results from article PMC10215749, “Determination of the affinity constants for phage display albumin-binding peptides” (PeerJ, 2023).

Key:
HSA [1] = biological target: T1, HSA (Homo sapiens, UniProt P02768); assay: Phage clone binding to HSA, specificity ratio by phage titer; set-up: purchased Sigma; settings: for Blank control phage titre: single clone eluted from blank control well; for Blank control phage titre / Elute phage titre (HSA-coated well): input 1.16 × 10^12 (HSA-3), 1.34 × 10^13 (HSA-4) pfu/ml; for Elute phage titre (HSA-coated well): single clone
Experimental: After rapid washing three times with TBST (TBS + 0.1% [v/v] Tween-20), 100 µL of the diluted phage library (∼2 × 10^11 phage) was added to the well of the coated plate and rocked gently to let them absorb for 60 min. Following 10 washes with TBST, the bound phages were eluted with 0.2 M Gly-HCl, pH 2.2. The 100 µL that was eluted was neutralized with 15 µL Tris–HCl (1 M, pH 9.1) immediately. A small amount of eluted phage was titered as described above and the rest of elutes were added to 20 ml ER2738 culture (OD 600∼0.5) to be amplified 4.5 h at 37 °C for the next round.
To evaluate the efficiency of the phage display panning procedure, we created two selection criteria: the recovery yield and the specificity ratio. The recovery yield is the ratio of the titer of the eluted phage to the input phage. The specificity ratio is the ratio of the titer of the eluted phage from the target coated well to the blank control well. Recovery Y ield%=Elutephagetiterfromtarget/Inputphagetiter×100 Specificity Ratio=Elutephagetiterfromtarget/Elutephagetiterfromblank.
The amplified culture of phage clones was transferred to a 50 mL centrifuge tube and centrifuged for 10 min at 10,000 rpm at 4 °C with a high-speed refrigerated centrifuge (Himac CR21G). The supernatant was decanted to a fresh tube and precipitated by 1/5 volume of PEG/-NaCl (20% [w/v] Polyethylene Glycol–8000, 2.5 M NaCl) at 4 °C overnight and centrifuged for 20 min at 10,000 rpm. The supernatant was discarded and the sediment containing phage was suspended with TBS. To precipitate the phage again, a 1/5 volume of PEG/NaCl was added to the culture and it was stored at 4 °C for at least 60 min. The PEG suspension was centrifuged for 10 min at 10,000 rpm, the phage precipitate was suspended in 500 µL of TBS.
The sequences of HSA-binding peptides were determined by DNA sequencing of the selected phage using −96 gIII sequencing primer 5′-[…]-3′ in the Ph.D-7 phage library.
The specificity ratio was used to determine if positive phage clones with high HSA-binding affinity were isolated. […] We tested the selected clones with significant specificity ratios as potential HSA-binders, after screening many phage clones that consisted of microplate-surface-binding phages, the specific and non-specific target-binding phages, from the target-binding plate as shown in Table 3. The two selected clones, HSA-3 and HSA-4, show specificity ratios of 7.4 and 9.8, respectively, confirming that our method in the panning process is effective.

HSA [2] = biological target: T1, HSA; assay: Relative dissociation constant of peptide-fused phage by double-reciprocal plot of phage titers
Experimental: A single E. coli ER2738 colony was inoculated into 10 mL LB-Tet medium and incubated at 37 °C by shaking until mid-log phase (OD600∼0.5) for phage titering. Phage solutions were diluted 10-fold serially in TBS (50 mM Tris–HCl, pH 7.5, 150 mM NaCl) and aliquots of these solutions (50 µL) were added to a suspension of the prepared ER2738 cells (450 µL), 1 for each phage dilution. The phage-infected ER2738 cells (100 µL) were then poured from each dilution tube to an LB-Tet-IPTG-X-gal plate and the plates were incubated overnight at 37 °C. We determined the number of phage particles contained in the original stock phage culture by counting the number of plaques formed on the seeded agar plate and multiplying this by the dilution factor.
The concentration of bound phage [ ϕT] and free phage [ ϕ] can be calculated from the mass conservation equation, where [ ϕ] T is the total concentration of input phage and the concentration of target bound phage [ ϕT] can be estimated by eluted phage concentration [ ϕ] e, which is very much less than [ ϕ] T in our experiment. (6) ϕ=ϕt−ϕe≈ϕt (7) ϕT≈ϕe.
A double reciprocal plot of phage-target affinity measurement is generated by plotting 1/[ ϕ] e as a function of 1/[ ϕ] t. The slope is Kd/[T], the intercept on the vertical axis is 1/[T], and the intercept on the horizontal axis is −1/ Kd. […] (8) 1/ϕe=Kd/Tϕt+1/T.
Then TBST buffer wash the unbound phages, followed by the elution of the bound phages to the well with glycine-HCl, pH2.2. The concentration of input and eluted phage was quantitated by titration. […] These phage-fused peptides were subjected to DNA sequencing and their corresponding heptapeptide sequences are also shown in Table 3.

Human serum albumin [3] = biological target: T2, Human serum albumin (human, UniProt P02768 25-609); assay: phage binding to coated microplate, read by phage titer (double reciprocal plot); constant HSA coated in microtiter wells, varying input phage until equilibrium, TBST wash, elution with glycine-HCl pH 2.2, input and eluted phage titered; relative dissociation constant = slope/intercept of 1/eluted against 1/input; settings: both partners purified
T2 construct: human serum albumin (HSA), bought from Sigma, coated on microplate wells; also called HSA; HSA target; source: bought: Sigma

Human serum albumin [4] = biological target: T2, Human serum albumin; assay: phage binding to coated microplate, read by phage titer (specificity ratio); HSA coated in microplate wells, no blocking protein; purified phage clone added, washed with TBST, eluted with Gly-HCl pH 2.2 and titered; ratio of the eluted titer from the HSA well to that from a blank well; settings: both partners purified

In the case of AESQKLN [HSA-3], the “Blank control phage titre” value (HSA [1]) is reported as 1.24 × 10^5 pfu/ml, the “Elute phage titre (HSA-coated well)” value (HSA [1]) is reported as 9.16 × 10^5 pfu/ml and the “Elute phage titer Φe” value (HSA [2]; HSA-3, sample 1, input 1.13×10^14 pfu/L) is reported as 7.94×10^6 pfu/L. For the same molecule, the “Elute phage titer Φe” value (HSA [2]; HSA-3, sample 2, input 5.8×10^13 pfu/L) was 7.5×10^6 pfu/L, the “Elute phage concentration [Φ]e” value (HSA [2]; HSA-3, sample 2, input concentration printed 1.03×10^7 mol/L) was 7.98e-13 mol/L and the “Elute phage titer Φe” value (HSA [2]; HSA-3, sample 3, input 3.36×10^13 pfu/L) was 5.68×10^6 pfu/L. The “Elute phage concentration [Φ]e” value (HSA [2]; HSA-3, sample 3, input concentration printed 1.79×10^7 mol/L) was 1.06e-14 mol/L, the “Elute phage concentration [Φ]e” value (HSA [2]; HSA-3, sample 4) was 2.39e-14 mol/L and the “Elute phage titer Φe” value (HSA [2]; HSA-3, sample 4, input 2.16×10^13 pfu/L) was 2.52×10^6 pfu/L. For the same molecule, the “Elute phage titer Φe” value (HSA [2]; HSA-3, sample 5, input 1.52×10^13 pfu/L) was 2×10^6 pfu/L and the “Elute phage concentration [Φ]e” value (HSA [2]; HSA-3, sample 5, input concentration printed 3.99×10^7 mol/L) was 3.03e-14 mol/L.

With ITPLPLR [HSA-4] the “Blank control phage titre” value (HSA [1]) was 5.22 × 10^5 pfu/ml, the “Elute phage titre (HSA-coated well)” value (HSA [1]) was 5.12 × 10^6 pfu/ml and the Specificity ratio (HSA [1]; titer of eluted phage from target coated well / from blank control well) was 9.8. The “Elute phage titer Φe” value (HSA [2]; HSA-4, sample 1, input 5.90×10^13 pfu/L) was 5.0×10^6 pfu/L, the “Elute phage titer Φe” value (HSA [2]; HSA-4, sample 2, input 3.88×10^13 pfu/L) was 4.32×10^6 pfu/L and the “Elute phage concentration [Φ]e” value (HSA [2]; HSA-4, sample 2, input concentration printed 1.55×10^7 mol/L) was 1.4e-14 mol/L. The “Elute phage titer Φe” value (HSA [2]; HSA-4, sample 3, input 2.93×10^13 pfu/L) was 2.87×10^6 pfu/L, the “Elute phage concentration [Φ]e” value (HSA [2]; HSA-4, sample 3, input concentration printed 2.05×10^7 mol/L) was 2.1e-14 mol/L and the “Elute phage titer Φe” value (HSA [2]; HSA-4, sample 4, input 2.48×10^13 pfu/L) was 2.8×10^6 pfu/L. The “Elute phage concentration [Φ]e” value (HSA [2]; HSA-4, sample 4, input concentration printed 2.44×10^7 mol/L) was 2.2e-14 mol/L, the “Elute phage titer Φe” value (HSA [2]; HSA-4, sample 5, input 2.10×10^13 pfu/L) was 2.16×10^6 pfu/L and the “Elute phage concentration [Φ]e” value (HSA [2]; HSA-4, sample 5, input concentration printed 2.86×10^7 mol/L) was 2.8e-14 mol/L. For the same molecule, the Kd (HSA [2]; read-out: Relative dissociation constant, phage-fused peptide vs immobilized HSA, double-reciprocal plot 1/[Φ]e vs 1/[Φ]t, linear regression, elution glycine-HCl pH 2.2) was 388 nM.

B1: HSA-3 peptide fused phage (peptide)
peptide: AESQKLN
notes: DNA GCGGAGAGTTAGAAGCTTAAT (TAG printed as Q); Measured as the peptide on whole phage, not as a free peptide; source: M13 phage clone from the Ph.D.-7 library, amplified in E. coli ER2738, purified (PEG/NaCl precipitation)
Work on B1 yielded a Kd (Human serum albumin [3]) of 529 nM and a specificity ratio (Human serum albumin [4]) of 7.4.
